# Starred links: 1 amine or outer side, 2 acyl side, 3 side chain; linkers in the order of their positions; H or OH if unused. Non-standard residues stand in square brackets, D forms with d. Residues, ends and D or L forms follow the SMILES beside them. *: point of attachment. dPhe(4-Cl) = N[C@H](Cc1ccc(Cl)cc1)C(=O)O; NH(CH2)10NH = C(CCCCCN[*:2])CCCCN[*:1]; d2Nal = N[C@H](Cc1ccc2ccccc2c1)C(=O)O; NMeY = CN[C@@H](Cc1ccc(O)cc1)C(=O)O; NHCH2(2-pyridyl) = c1ccc(CN*)nc1; d3Pal = N[C@H](Cc1cccnc1)C(=O)O; NHPhenethyl = c1ccc(CCN*)cc1; Nicotinoyl = O=C(c1cccnc1)*; NH(CH2)8NH2 = NCCCCCCCCN*; Agmatine = N=C(N)NCCCCN*; NH(CH2)7NH2 = NCCCCCCCN*; X9 = CC(C)NCCCCCCCCCCN*; NH(CH2)5NH2 = NCCCCCN*; X6 = N=C(N)NCCCCCCCCN*; NHCH2CH2NHMe = CNCCN*; X10 = N=C(N)NCCCCCCN*; NH(CH2)3NH2 = NCCCN*; X12 = N=C(N)NCCCCCN*; X11 = CC(C)NCCCCCN*; X2 = N=C(N)NCCN*; X4 = CC(C)NCCN*
# Target: T1, LH release from rat pituitary cells (Rattus norvegicus, UniProt P30969)
# T1 sequence (P30969 1-327): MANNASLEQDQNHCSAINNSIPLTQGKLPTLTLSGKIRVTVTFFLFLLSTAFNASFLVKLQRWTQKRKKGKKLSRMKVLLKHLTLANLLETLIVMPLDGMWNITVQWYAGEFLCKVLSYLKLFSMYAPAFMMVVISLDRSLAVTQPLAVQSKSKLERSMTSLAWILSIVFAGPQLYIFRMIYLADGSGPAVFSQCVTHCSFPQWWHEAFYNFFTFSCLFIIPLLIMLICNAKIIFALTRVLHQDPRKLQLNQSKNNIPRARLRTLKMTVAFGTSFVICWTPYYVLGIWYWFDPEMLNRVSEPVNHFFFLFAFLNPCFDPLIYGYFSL
# Experiment: in vitro inhibition of LH release from rat pituitary cells (pA2)
# Type: cell-based
# Conditions: pA2 = negative logarithm of antagonist concentration required to shift the response curve of the agonist leuprolide to two-fold higher concentration
# Description: Representative compounds of the present invention were evaluated in vitro for inhibition of LH release from rat pituitary cells (pA2). Methods for the assay procedures arc described by F. Haviv, et al. J. Med. Chem., 32:2340-2344 (1989). Values of pA2 are the negative logarithms of the concentration of the particular antagonist test compound required to shift the response curve produced by the agonist leuprolide to two-fold higher concentration. Typically values of 7.0 or greater are indicative of good LHRH antagonist potency, with values of 8.0 or greater being preferred. Leuprolide LHRH agonist, disclosed and claimed in U.S. Pat. No. 4,005,063, has the structure 5-oxo-Pro^1 -His^2 -Trp^3 -Ser^4 -Tyr^5 -D-Leu^6 -Leu^7 -Arg^8 -Pro^9 -NHEt.
smiles,measurement,value
"CC(=O)N[C@H](Cc1ccc2ccccc2c1)C(=O)N[C@H](Cc1ccc(Cl)cc1)C(=O)N[C@H](Cc1cccnc1)C(=O)N[C@@H](CO)C(=O)N(C)[C@@H](Cc1ccc(O)cc1)C(=O)N[C@H](CCCCNC(=O)c1cccnc1)C(=O)N[C@@H](CC(C)C)C(=O)NCCc1ccccc1 [Example 8, NAcD2Nal-D4ClPhe-D3Pal-Ser-NMeTyr-DLys(Nic)-Leu-NH--(CH2)2 -phenyl] (Ac-[d2Nal][dPhe(4-Cl)][d3Pal]S[NMeY][dK](Nicotinoyl)L-NHPhenethyl)",LHRH antagonist potency (pA2),8.48
"CC(=O)N[C@H](Cc1ccc2ccccc2c1)C(=O)N[C@H](Cc1ccc(Cl)cc1)C(=O)N[C@H](Cc1cccnc1)C(=O)N[C@@H](CO)C(=O)N(C)[C@@H](Cc1ccc(O)cc1)C(=O)N[C@H](CCCCNC(=O)c1cccnc1)C(=O)N[C@@H](CC(C)C)C(=O)NCCNC(C)C [Example 9, NAcD2Nal-D4ClPhe-D3Pal-Ser-NMeTyr-DLys(Nic)-Leu-NH--(CH2)2 NH-isopropyl] (Ac-[d2Nal][dPhe(4-Cl)][d3Pal]S[NMeY][dK](Nicotinoyl)L-X4)",LHRH antagonist potency (pA2),10.21
"CC(=O)N[C@H](Cc1ccc2ccccc2c1)C(=O)N[C@H](Cc1ccc(Cl)cc1)C(=O)N[C@H](Cc1cccnc1)C(=O)N[C@@H](CO)C(=O)N(C)[C@@H](Cc1ccc(O)cc1)C(=O)N[C@H](CCCCNC(=O)c1cccnc1)C(=O)N[C@@H](CC(C)C)C(=O)NCCCCCCCN [Example 10, NAcD2Nal-D4ClPhe-D3Pal-Ser-NMeTyr-DLys(Nic)-Leu-NH--(CH2)7 NH2] (Ac-[d2Nal][dPhe(4-Cl)][d3Pal]S[NMeY][dK](Nicotinoyl)L-{NH(CH2)7NH2})",LHRH antagonist potency (pA2),8.76
"CC(=O)N[C@H](Cc1ccc2ccccc2c1)C(=O)N[C@H](Cc1ccc(Cl)cc1)C(=O)N[C@H](Cc1cccnc1)C(=O)N[C@@H](CO)C(=O)N(C)[C@@H](Cc1ccc(O)cc1)C(=O)N[C@H](CCCCNC(=O)c1cccnc1)C(=O)N[C@@H](CC(C)C)C(=O)NCCCCCCNC(=N)N [Example 11, NAcD2Nal-D4ClPhe-D3Pal-Ser-NMeTyr-DLys(Nic)-Leu-NH--(CH2)6 NH(C=NH)NH2] (Ac-[d2Nal][dPhe(4-Cl)][d3Pal]S[NMeY][dK](Nicotinoyl)L-X10)",LHRH antagonist potency (pA2),9.10
"CC(=O)N[C@H](Cc1ccc2ccccc2c1)C(=O)N[C@H](Cc1ccc(Cl)cc1)C(=O)N[C@H](Cc1cccnc1)C(=O)N[C@@H](CO)C(=O)N(C)[C@@H](Cc1ccc(O)cc1)C(=O)N[C@H](CCCCNC(=O)c1cccnc1)C(=O)N[C@@H](CC(C)C)C(=O)NCCCCCNC(C)C [Example 12, NAcD2Nal-D4ClPhe-D3Pal-Ser-NMeTyr-DLys(Nic)-1-Leu-NH--(CH2)5 NH-isopropyl] (Ac-[d2Nal][dPhe(4-Cl)][d3Pal]S[NMeY][dK](Nicotinoyl)L-X11)",LHRH antagonist potency (pA2),10.45
"CC(=O)N[C@H](Cc1ccc2ccccc2c1)C(=O)N[C@H](Cc1ccc(Cl)cc1)C(=O)N[C@H](Cc1cccnc1)C(=O)N[C@@H](CO)C(=O)N(C)[C@@H](Cc1ccc(O)cc1)C(=O)N[C@H](CCCCNC(=O)c1cccnc1)C(=O)N[C@@H](CC(C)C)C(=O)NCCCCCN [Example 13, NAcD2Nal-D4ClPhe-D3Pal-Ser-NMeTyr-DLys(Nic)-Leu-NH--(CH2)5 NH2] (Ac-[d2Nal][dPhe(4-Cl)][d3Pal]S[NMeY][dK](Nicotinoyl)L-{NH(CH2)5NH2})",LHRH antagonist potency (pA2),9.30
"CC(=O)N[C@H](Cc1ccc2ccccc2c1)C(=O)N[C@H](Cc1ccc(Cl)cc1)C(=O)N[C@H](Cc1cccnc1)C(=O)N[C@@H](CO)C(=O)N(C)[C@@H](Cc1ccc(O)cc1)C(=O)N[C@H](CCCCNC(=O)c1cccnc1)C(=O)N[C@@H](CC(C)C)C(=O)NCCCCCNC(=N)N [Example 14, NAcD2Nal-D4ClPhe-D3Pal-Ser-NMeTyr-DLys(Nic)-Leu-NH--(CH2)5 NH(C=NH)NH2] (Ac-[d2Nal][dPhe(4-Cl)][d3Pal]S[NMeY][dK](Nicotinoyl)L-X12)",LHRH antagonist potency (pA2),9.81
"CC(=O)N[C@H](Cc1ccc2ccccc2c1)C(=O)N[C@H](Cc1ccc(Cl)cc1)C(=O)N[C@H](Cc1cccnc1)C(=O)N[C@@H](CO)C(=O)N(C)[C@@H](Cc1ccc(O)cc1)C(=O)N[C@H](CCCCNC(=O)c1cccnc1)C(=O)N[C@@H](CC(C)C)C(=O)NCCCN [Example 15, NAcD2Nal-D4ClPhe-D3Pal-Ser-NMeTyr-DLys(Nic)-Leu-NH--(CH2)3 NH2] (Ac-[d2Nal][dPhe(4-Cl)][d3Pal]S[NMeY][dK](Nicotinoyl)L-{NH(CH2)3NH2})",LHRH antagonist potency (pA2),8.70
"CC(=O)N[C@H](Cc1ccc2ccccc2c1)C(=O)N[C@H](Cc1ccc(Cl)cc1)C(=O)N[C@H](Cc1cccnc1)C(=O)N[C@@H](CO)C(=O)N(C)[C@@H](Cc1ccc(O)cc1)C(=O)N[C@H](CCCCNC(=O)c1cccnc1)C(=O)N[C@@H](CC(C)C)C(=O)NCCNC(=N)N [Example 16, NAcD2Nal-D4ClPhe-D3Pal-Ser-NMeTyr-DLys(Nic)-Leu-NH--(CH2)2 NH(C=NH)NH2] (Ac-[d2Nal][dPhe(4-Cl)][d3Pal]S[NMeY][dK](Nicotinoyl)L-X2)",LHRH antagonist potency (pA2),8.89
"CC(=O)N[C@H](Cc1ccc2ccccc2c1)C(=O)N[C@H](Cc1ccc(Cl)cc1)C(=O)N[C@H](Cc1cccnc1)C(=O)N[C@@H](CO)C(=O)N(C)[C@@H](Cc1ccc(O)cc1)C(=O)N[C@H](CCCCNC(=O)c1cccnc1)C(=O)N[C@@H](CC(C)C)C(=O)NCCCCCCCCCCN [Example 17, NAcD2Nal-D4ClPhe-D3Pal-Ser-NMeTyr-DLys(Nic)-Leu-NH--(CH2)10 NH2] (Ac-[d2Nal][dPhe(4-Cl)][d3Pal]S[NMeY][dK](Nicotinoyl)L-{NH(CH2)10NH})",LHRH antagonist potency (pA2),7.63
"CC(=O)N[C@H](Cc1ccc2ccccc2c1)C(=O)N[C@H](Cc1ccc(Cl)cc1)C(=O)N[C@H](Cc1cccnc1)C(=O)N[C@@H](CO)C(=O)N(C)[C@@H](Cc1ccc(O)cc1)C(=O)N[C@H](CCCCNC(=O)c1cccnc1)C(=O)N[C@@H](CC(C)C)C(=O)NCCCCCCCCN [Example 18, NAcD2Nal-D4ClPhe-D3Pal-Ser-NMeTyr-DLys(Nic)-Leu-NH--(CH2)8 NH2] (Ac-[d2Nal][dPhe(4-Cl)][d3Pal]S[NMeY][dK](Nicotinoyl)L-{NH(CH2)8NH2})",LHRH antagonist potency (pA2),8.48
"CNCCNC(=O)[C@H](CC(C)C)NC(=O)[C@@H](CCCCNC(=O)c1cccnc1)NC(=O)[C@H](Cc1ccc(O)cc1)N(C)C(=O)[C@H](CO)NC(=O)[C@@H](Cc1cccnc1)NC(=O)[C@@H](Cc1ccc(Cl)cc1)NC(=O)[C@@H](Cc1ccc2ccccc2c1)NC(C)=O [Example 19, NAcD2Nal-D4ClPhe-D3Pal-Ser-NMeTyr-DLys(Nic)-Leu-NH--(CH2)2 NHCH3] (Ac-[d2Nal][dPhe(4-Cl)][d3Pal]S[NMeY][dK](Nicotinoyl)L-NHCH2CH2NHMe)",LHRH antagonist potency (pA2),9.70
"CC(=O)N[C@H](Cc1ccc2ccccc2c1)C(=O)N[C@H](Cc1ccc(Cl)cc1)C(=O)N[C@H](Cc1cccnc1)C(=O)N[C@@H](CO)C(=O)N(C)[C@@H](Cc1ccc(O)cc1)C(=O)N[C@H](CCCCNC(=O)c1cccnc1)C(=O)N[C@@H](CC(C)C)C(=O)NCCCCCCCCNC(=N)N [Example 20, NAcD2Nal-D4ClPhe-D3Pal-Ser-NMeTyr-DLys(Nic)-Leu-NH--(CH2)8 NH(C=NH)NH2] (Ac-[d2Nal][dPhe(4-Cl)][d3Pal]S[NMeY][dK](Nicotinoyl)L-X6)",LHRH antagonist potency (pA2),8.39
"CC(=O)N[C@H](Cc1ccc2ccccc2c1)C(=O)N[C@H](Cc1ccc(Cl)cc1)C(=O)N[C@H](Cc1cccnc1)C(=O)N[C@@H](CO)C(=O)N(C)[C@@H](Cc1ccc(O)cc1)C(=O)N[C@H](CCCCNC(=O)c1cccnc1)C(=O)N[C@@H](CC(C)C)C(=O)NCCCCCCCCCCNC(C)C [Example 21, NAcD2Nal-D4ClPhe-D3Pal-Ser-NMeTyr-DLys(Nic)-Leu-NH--(CH2)10 NH-isopropyl] (Ac-[d2Nal][dPhe(4-Cl)][d3Pal]S[NMeY][dK](Nicotinoyl)L-X9)",LHRH antagonist potency (pA2),8.42
"CC(=O)N[C@H](Cc1ccc2ccccc2c1)C(=O)N[C@H](Cc1ccc(Cl)cc1)C(=O)N[C@H](Cc1cccnc1)C(=O)N[C@@H](CO)C(=O)N(C)[C@@H](Cc1ccc(O)cc1)C(=O)N[C@H](CCCCNC(=O)c1cccnc1)C(=O)N[C@@H](CC(C)C)C(=O)NCCCCNC(=N)N [Example 22, NAcD2Nal-D4ClPhe-D3Pal-Ser-NMeTyr-DLys(Nic)-Leu-NH--(CH2)4 NH(C=NH)NH2] (Ac-[d2Nal][dPhe(4-Cl)][d3Pal]S[NMeY][dK](Nicotinoyl)L-Agmatine)",LHRH antagonist potency (pA2),10.26
"CC(=O)N[C@H](Cc1ccc2ccccc2c1)C(=O)N[C@H](Cc1ccc(Cl)cc1)C(=O)N[C@H](Cc1cccnc1)C(=O)N[C@@H](CO)C(=O)N(C)[C@@H](Cc1ccc(O)cc1)C(=O)N[C@H](CCCCNC(=O)c1cccnc1)C(=O)N[C@@H](CC(C)C)C(=O)NCc1ccccn1 [Example 23, NAcD2Nal-D4ClPhe-D3Pal-Ser-NMeTyr-DLys(Nic)-Leu-NH--CH2 -(2-pyridine)] (Ac-[d2Nal][dPhe(4-Cl)][d3Pal]S[NMeY][dK](Nicotinoyl)L-{NHCH2(2-pyridyl)})",LHRH antagonist potency (pA2),9.18

# — patent US6191115A, “C-terminus modified heptapeptide LHRH analogs” (Abbott Laboratories, priority 1999, dated 2001)
